Test results taken from US20230002352A1, “SULFONAMIDE DERIVATIVES AS CTPS1 INHIBITORS” (Step Pharma S.A.S., priority 2019, published 2023).
Like-named read-outs stand apart in the source and are kept apart here.

Key:
human CTPS1 versus CTPS2 = experiment: Human CTPS1 versus CTPS2 selectivity assessment by RapidFire/MS analysis; format: biochemical
Protocol: Biological Example 2—RapidFire/MS-Based Enzyme Selectivity Assays.
Human CTPS1 Versus CTPS2 Selectivity Assessment by RapidFire/MS Analysis.
The enzyme inhibitory activities against each target isoform of interest may be determined for the compounds of the invention using an optimised RapidFire high-throughput mass spectrometry (RF/MS) assay format. RF/MS assays for both human CTPS1 and CTPS2 may be performed in assay buffer consisting of 50 mM HEPES (Merck), 20 mM MgCl2, 5 mM KCl, 1 mM DTT, 0.01% Tween-20, pH to 8.0 accordingly. Human full-length active C-terminal FLAG-His-tag CTPS1 (UniProtKB-P17812, CTPS[1-591]-[…]) may be obtained from Proteros biostructures GmbH. Human full length active C-terminal FLAG-His-Avi tagged CTPS2 (UniProtKB-Q9NRF8, CTPS2 [1-586]-[…]) may be obtained from Harker Bio.
Human CTPS (1 or 2) protein may be prepared in 1× assay buffer to the final working protein concentration required for the reaction. A 2 uL volume per well of 2×CTPS (1 or 2) protein may be mixed with 40 nL of compound using acoustic (ECHO) delivery and incubated for 10 minutes at 25° C. Each isoform enzymatic reaction may be subsequently initiated by addition of 2 uL per well of a 2× substrate mix in assay buffer. For hCTPS1: ATP (0.3 mM), UTP (0.2 mM), GTP (0.07 mM) and L-glutamine (0.1 mM). For hCTPS2: ATP (0.1 mM), UTP (0.04 mM), GTP (0.03 mM) and L-glutamine (0.1 mM). Each mixture may be incubated for an appropriate amount of time per isoform within the determined linear phase of the reaction at 25° C. A 60 uL volume of stop solution (1% formic acid with 0.5 uM ^13C9-^15N3-CTP in H2O) may be added and the plate immediately heat-sealed and centrifuged for 10 minutes at 4,000 rpm. Following centrifugation, plates may be loaded onto the Agilent RapidFire microfluidic solid phase extraction system coupled to an AP14000 triple quadrupole mass spectrometer (RF/MS) for analysis.
In all cases, the enzyme converts UTP to CTP. Highly specific and sensitive multiple reaction monitoring (MRM) MS methods may be optimised for the detection of the enzymatic reaction product, CTP, and the stable isotope labelled product standard ^13C9-^15N3-CTP. Readout for data analysis may be calculated as the ratio between the peak area of the product CTP and the internal standard ^13C9-^15N3-CTP. For data reporting, the following equation may be used: […]
For each screening plate, the means of the negative (DMSO) and positive control values were used for the calculation of the respective assay window (S/B) and Z′ values. The median of the respective control values was used for calculation of percent inhibition according to the following equation: […]
Percentage inhibition was then plotted against compound concentration, and the 50% inhibitory concentration (IC50) was determined from the resultant concentration-response curve.
Fold selectivity between CTPS1 and CTPS2 was subsequently calculated according to the following equation: […]

human CTPS1 = biological target: T1, human CTPS1 (Homo sapiens, UniProt P17812); experiment: Human CTPS1 enzyme inhibition (ADP-Glo Max assay); format: biochemical; details: ADP-Glo Max assay, read-out: CTPS1 (Human CTPS1 Enzyme Inhibition data grouped by potency range, IC50)
T1 construct: purchased Proteros biostructures GmbH
T1 sequence (P17812 1-591): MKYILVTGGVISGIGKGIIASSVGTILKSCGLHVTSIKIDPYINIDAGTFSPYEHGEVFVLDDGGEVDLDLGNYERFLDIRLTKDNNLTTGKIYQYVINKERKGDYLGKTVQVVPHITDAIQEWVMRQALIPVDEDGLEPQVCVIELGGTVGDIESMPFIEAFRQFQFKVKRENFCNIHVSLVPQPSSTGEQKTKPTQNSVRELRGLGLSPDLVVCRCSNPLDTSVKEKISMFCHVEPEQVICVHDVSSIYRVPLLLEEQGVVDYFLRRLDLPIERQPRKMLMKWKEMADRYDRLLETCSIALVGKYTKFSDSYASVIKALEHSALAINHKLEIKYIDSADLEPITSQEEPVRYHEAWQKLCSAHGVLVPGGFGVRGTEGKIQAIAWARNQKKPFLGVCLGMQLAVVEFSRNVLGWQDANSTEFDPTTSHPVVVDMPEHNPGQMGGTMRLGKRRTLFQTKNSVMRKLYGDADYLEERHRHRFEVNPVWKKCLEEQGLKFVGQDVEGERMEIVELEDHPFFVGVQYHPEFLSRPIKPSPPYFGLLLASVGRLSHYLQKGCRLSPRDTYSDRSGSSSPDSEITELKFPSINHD
Summary of the method: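 Full-length FLAG-His-tagged human CTPS1 and compound were preincubated 10 min at 25 °C in 50 mM Tris pH 8.0, 10 mM MgCl2, 0.01% Tween-20, 2 mM L-cysteine. Substrate mix: ATP 0.31 mM, GTP 0.034 mM, UTP 0.48 mM, glutamine 0.186 mM; linear-phase reaction at 25 °C. ADP-Glo Max luminescence; IC50 from inhibition curve.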

CCOc1cncc(-c2ccc(NC(=O)C3(c4ccnc(NS(=O)(=O)C5CC5)n4)CCC(O)CC3)nc2)n1 (single isomer, unassigned) [Example P227, 1-(2-(cyclopropanesulfonamido)pyrimidin-4-yl)-N-(5-(6-ethoxypyrazin-2-yl)pyridin-2-yl)-4-hydroxycyclohexanecarboxamide]
Selectivity (fold selectivity between CTPS1 and CTPS2) (human CTPS1 versus CTPS2; Table 27): +++ (>60 fold (+++))
IC50 (human CTPS1; Table 24): ≤ 100 nM

CCOc1cncc(-c2ccc(NC(=O)C3(c4ccnc(NS(=O)(=O)C5CC5)n4)CCC(O)CC3)nc2)n1 (single isomer, unassigned) [Example P228, 1-(2-(cyclopropanesulfonamido)pyrimidin-4-yl)-N-(5-(6-ethoxypyrazin-2-yl)pyridin-2-yl)-4-hydroxycyclohexanecarboxamide]
Selectivity (fold selectivity between CTPS1 and CTPS2) (human CTPS1 versus CTPS2; Table 27): + (2-30 fold (+))
IC50 (human CTPS1; Table 24): 1000 to 10000 nM

CCOc1cncc(-c2ccc(NC(=O)C3(c4ccnc(NS(=O)(=O)C5CC5)n4)CCC(N(C)C)CC3)nc2)n1 (single isomer, unassigned) [Example P229, 1-(2-(cyclopropanesulfonamido)pyrimidin-4-yl)-4-(dimethylamino)-N-(5-(6-ethoxypyrazin-2-yl)pyridin-2-yl)cyclohexane-1-carboxamide]
Selectivity (fold selectivity between CTPS1 and CTPS2) (human CTPS1 versus CTPS2; Table 27): +++ (>60 fold (+++))
IC50 (human CTPS1; Table 24): ≤ 100 nM

CCOc1cncc(-c2ccc(NC(=O)C3(c4ccnc(NS(=O)(=O)C5CC5)n4)CCC(N(C)C)CC3)nc2)n1 (single isomer, unassigned) [Example P230, 1-(2-(cyclopropanesulfonamido)pyrimidin-4-yl)-4-(dimethylamino)-N-(5-(6-ethoxypyrazin-2-yl)pyridin-2-yl)cyclohexane-1-carboxamide]
Selectivity (fold selectivity between CTPS1 and CTPS2) (human CTPS1 versus CTPS2; Table 27): +++ (>60 fold (+++))
IC50 (human CTPS1; Table 24): ≤ 100 nM

CCOc1cncc(-c2ccc(NC(=O)C3(c4ccnc(NS(=O)(=O)C5CC5)n4)CCCC3)cc2)n1 [Example P2, 1-(2-(Cyclopropanesulfonamido)pyrimidin-4-yl)-N-(4-(6-ethoxypyrazin-2-yl)phenyl)cyclopentanecarboxamide]
Selectivity (fold selectivity between CTPS1 and CTPS2) (human CTPS1 versus CTPS2; Table 26): +++ (>60 fold (+++))
IC50 (human CTPS1; Table 23): ≤ 100 nM

CC(C)Oc1cncc(-c2ccc(NC(=O)Cc3ccnc(NS(=O)(=O)C4CC4)n3)c(F)c2)n1 [Example P12]
Selectivity (fold selectivity between CTPS1 and CTPS2) (human CTPS1 versus CTPS2; Table 26): ++ (>30-60 fold (++))
IC50 (human CTPS1; Table 23): ≤ 100 nM

O=C(Cc1ccnc(NS(=O)(=O)C2CC2)n1)Nc1ccc(-c2cccnc2)cc1 [Example P16]
Selectivity (fold selectivity between CTPS1 and CTPS2) (human CTPS1 versus CTPS2; Table 26): ++ (>30-60 fold (++))
IC50 (human CTPS1; Table 23): 100 to 1000 nM

CCOc1cncc(-c2ccc(NC(=O)Cc3ccnc(NS(=O)(=O)C4CC4)n3)cc2)n1 [Example P18, 2-(2-(Cyclopropanesulfonamido)pyrimidin-4-yl)-N-(4-(6-ethoxypyrazin-2-yl)phenyl)acetamide]
Selectivity (fold selectivity between CTPS1 and CTPS2) (human CTPS1 versus CTPS2; Table 26): ++ (>30-60 fold (++))
IC50 (human CTPS1; Table 23): ≤ 100 nM

CC(C)Oc1cncc(-c2ccc(NC(=O)Cc3ccnc(NS(=O)(=O)C4CC4)n3)cc2)n1 [Example P21]
Selectivity (fold selectivity between CTPS1 and CTPS2) (human CTPS1 versus CTPS2; Table 26): ++ (>30-60 fold (++))
IC50 (human CTPS1; Table 23): ≤ 100 nM

CCOc1cncc(-c2ccc(NC(=O)C(C)(C)c3ccnc(NS(=O)(=O)C4CC4)n3)nc2)n1 [Example P31]
Selectivity (fold selectivity between CTPS1 and CTPS2) (human CTPS1 versus CTPS2; Table 26): +++ (>60 fold (+++))
IC50 (human CTPS1; Table 23): ≤ 100 nM

CCOc1cncc(-c2ccc(NC(=O)C(C)(C)c3ccnc(NS(=O)(=O)C4CC4)n3)c(C#N)c2)n1 [Example P34]
Selectivity (fold selectivity between CTPS1 and CTPS2) (human CTPS1 versus CTPS2; Table 26): + (2-30 fold (+))
IC50 (human CTPS1; Table 23): ≤ 100 nM

CCOc1cncc(-c2ccc(NC(=O)C(C)(C)c3ccnc(NS(=O)(=O)C4CC4)n3)c(F)c2)n1 [Example P38]
Selectivity (fold selectivity between CTPS1 and CTPS2) (human CTPS1 versus CTPS2; Table 26): + (2-30 fold (+))
IC50 (human CTPS1; Table 23): ≤ 100 nM

CC(C)Oc1cncc(-c2ccc(NC(=O)C(C)(C)c3ccnc(NS(=O)(=O)C4CC4)n3)c(F)c2)n1 [Example P39]
Selectivity (fold selectivity between CTPS1 and CTPS2) (human CTPS1 versus CTPS2; Table 26): + (2-30 fold (+))
IC50 (human CTPS1; Table 23): ≤ 100 nM

CC(C)(C(=O)Nc1ccc(-c2cccnc2)cc1)c1ccnc(NS(=O)(=O)C2CC2)n1 [Example P59]
Selectivity (fold selectivity between CTPS1 and CTPS2) (human CTPS1 versus CTPS2; Table 26): + (2-30 fold (+))
IC50 (human CTPS1; Table 23): 1000 to 10000 nM

CCOc1cncc(-c2ccc(NC(=O)C(C)(C)c3nc(NS(=O)(=O)C4CC4)ncc3F)cc2)n1 [Example P68]
Selectivity (fold selectivity between CTPS1 and CTPS2) (human CTPS1 versus CTPS2; Table 26): ++ (>30-60 fold (++))
IC50 (human CTPS1; Table 23): 100 to 1000 nM

CCOc1cncc(-c2ccc(NC(=O)C(C)(C)c3nc(NS(=O)(=O)C4CC4)ncc3C)cc2)n1 [Example P70]
Selectivity (fold selectivity between CTPS1 and CTPS2) (human CTPS1 versus CTPS2; Table 26): + (2-30 fold (+))
IC50 (human CTPS1; Table 23): 1000 to 10000 nM

CCOc1cncc(-c2ccc(NC(=O)C(C)(C)c3ccnc(NS(=O)(=O)CC)n3)cc2)n1 [Example P74]
Selectivity (fold selectivity between CTPS1 and CTPS2) (human CTPS1 versus CTPS2; Table 26): ++ (>30-60 fold (++))
IC50 (human CTPS1; Table 23): 100 to 1000 nM

CCOc1cncc(-c2ccc(NC(=O)C(C)(C)c3ccnc(NS(C)(=O)=O)n3)nc2)n1 [Example P76]
Selectivity (fold selectivity between CTPS1 and CTPS2) (human CTPS1 versus CTPS2; Table 26): ++ (>30-60 fold (++))
IC50 (human CTPS1; Table 23): 100 to 1000 nM

CCOc1cncc(-c2ccc(NC(=O)C3(c4ccnc(NS(=O)(=O)C5CC5)n4)CC3)cc2)n1 [Example P83]
Selectivity (fold selectivity between CTPS1 and CTPS2) (human CTPS1 versus CTPS2; Table 26): +++ (>60 fold (+++))
IC50 (human CTPS1; Table 23): ≤ 100 nM

CCOc1cncc(-c2ccc(NC(=O)C(F)(CC)c3cncc(NS(=O)(=O)C4CC4)n3)nc2)n1 (centres unmarked) [Example P200]
Selectivity (fold selectivity between CTPS1 and CTPS2) (human CTPS1 versus CTPS2; Table 26): ++ (>30-60 fold (++))

CCOc1cncc(-c2ccc(NC(=O)C(CC)c3cncc(NS(=O)(=O)C4CC4)n3)nc2)n1 (centres unmarked) [Example P201]
Selectivity (fold selectivity between CTPS1 and CTPS2) (human CTPS1 versus CTPS2; Table 26): +++ (>60 fold (+++))

CCOc1cncc(-c2ccc(NC(=O)C(CC)c3cncc(NS(=O)(=O)C4CC4)n3)cc2)n1 (centres unmarked) [Example P202]
Selectivity (fold selectivity between CTPS1 and CTPS2) (human CTPS1 versus CTPS2; Table 26): +++ (>60 fold (+++))

CCOc1cncc(-c2ccc(NC(=O)C(C)(OC)c3cncc(NS(=O)(=O)C4CC4)n3)nc2)n1 (centres unmarked) [Example P205a]
Selectivity (fold selectivity between CTPS1 and CTPS2) (human CTPS1 versus CTPS2; Table 26): +++ (>60 fold (+++))

CCOc1cncc(-c2ccc(NC(=O)C(C)(OC)c3cncc(NS(=O)(=O)C4CC4)n3)nc2)n1 (centres unmarked) [Example P205b]
Selectivity (fold selectivity between CTPS1 and CTPS2) (human CTPS1 versus CTPS2; Table 26): ++ (>30-60 fold (++))

CCOc1cncc(-c2ccc(C(=O)NC(CC)c3ccnc(NS(=O)(=O)C4CC4)n3)c(F)c2)n1 (centres unmarked) [Example P216]
Selectivity (fold selectivity between CTPS1 and CTPS2) (human CTPS1 versus CTPS2; Table 26): +++ (>60 fold (+++))
